According to patent EP4772530A1, “PEPTIDE TARGETING SOMATOSTATIN RECEPTOR, DRUG CONJUGATE AND USE THEREOF” (Mainline Biosciences (Shanghai) Co., Ltd., priority 2023, dated 2025):
Read-outs that look alike come from different tables or passages of the source. *1 amine or outer side, *2 acyl side, *3 side chain or, on linkers, in order; H or OH if unused. Where a SMILES comes first, the peptide text is derived from it. Bridges are numbered along the chain shown (N, C = ends). Roman numbers before positions name the chains, in order. [ ]: non-standard residue; d: D form. The star is where a group is joined. X4 = CC(=O)N[C@@H](CSC1CC(=O)N(CCCCCC(=O)[*:2])C1=O)C(=O)NCCOCCOCCOCCOCCOCCOCCC(=O)[*:1]; Exatecan = CC[C@@]1(O)C(=O)OCc2c1cc1n(c2=O)Cc2c-1nc1cc(F)c(C)c3c1c2[C@@H](N*)CC3; Hexanoyl(6-succinimido-3yl) = O=C1CC([*:1])C(=O)N1CCCCCC(=O)[*:2]; Dolaproine = CO[C@@H]([C@@H]1CCCN1)[C@@H](C)C(=O)O; Dil = CC[C@H](C)[C@H](NC)[C@@H](CC(=O)O)OC; PABC = O=C(OCc1ccc(N[*:1])cc1)[*:2]; PEG6 = NCCOCCOCCOCCOCCOCCOCCC(=O)O; NHCH2OCH2CO = O=C(COCN[*:1])[*:2]; X2 = C[C@@H](N*)[C@@H](O)c1ccccc1; Cit = NC(=O)NCCC[C@H](N)C(=O)O; NMeV = CN[C@H](C(=O)O)C(C)C

Key:
NCI-H69 = assay: Cell killing in NCI-H69 by CGT (CellTiter-Glo); type: cell-based; conditions: NCI-H69, 96 h; for Bottom (Inhibition at Lowest Point) / Top (Inhibition at Highest Point): Inh% relative to DMSO control, 4-parameter fit
Description: Approximately 5 µL of the PDC was added to the corresponding wells of the plate, and compared with DMSO (control, without the PDC of the present application), PTX, MMAE, and Dxd wells. The final concentration of DMSO in each well was 0.2%; • (5) The cells were incubated in a 5% CO2 incubator at 37°C for 96 h; • (6) The cell culture plate was equilibrated to room temperature, and 50 µL of CellTiter-Glo® Reagent was added to each well; • (7) The plate was placed on a shaker for 2 min to ensure complete cell lysis; • (8) After mixing, the plate was placed at room temperature to react for 10 min. The fluorescence value (in RLU) was read when the signal became stable. • c) Data analysis • (1) The inhibition (Inh %) relative to the DMSO control was calculated as follows: Inhibition (Inh%)= 100 -(RLU of compound - RLU of DMSO control)/ (RLU of DMSO control - RLU of blank)*100% • (2) The data were analyzed using Graphpad 5.0 software. A 4-parameter equation was fitted to generate a concentration-response curve to obtain the IC50. Table 3: Test Results of Cell Killing in NCI-H69

SSTR2 = biological target: T1, SSTR2 (Homo sapiens, UniProt P30874); assay: SSTR2 cAMP test; type: cell-based; conditions: for activity at 50 µM: Max Dose 50000 nM; for EC50: SSTR2/CHO cells, Forskolin, cAMP activation rate
T1 construct: expressed in transfected cells; host or cells: CHO cells (SSTR2/CHO)
T1 sequence (P30874 whole entry): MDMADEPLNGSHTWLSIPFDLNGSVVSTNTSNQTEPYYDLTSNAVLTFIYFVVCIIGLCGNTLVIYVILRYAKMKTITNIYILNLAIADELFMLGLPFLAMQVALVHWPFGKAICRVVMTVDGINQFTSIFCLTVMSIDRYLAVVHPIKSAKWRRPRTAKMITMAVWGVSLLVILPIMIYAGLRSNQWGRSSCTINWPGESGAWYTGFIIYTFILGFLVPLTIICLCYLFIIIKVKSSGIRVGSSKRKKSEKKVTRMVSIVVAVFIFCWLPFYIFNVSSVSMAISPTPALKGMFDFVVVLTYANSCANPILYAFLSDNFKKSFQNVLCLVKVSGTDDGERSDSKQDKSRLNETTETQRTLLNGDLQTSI
Description: • 1) Compound preparation: The test compound was diluted by 4-fold with DMSO to obtain 10 different concentration points. Approximately 100 nL of the diluted compound was then transferred to a cell reaction plate and centrifuged for later use. • 2) Cell preparation:The cultured SSTR2/CHO cells were collected into a sterile centrifuge tube, and the supernatant was discarded by centrifugation. • 3) The cells were resuspended in assay buffer, counted using a Vi-cell counter, and diluted with assay buffer. • 4) Approximately 100 nL of 100 µM Forskolin was transferred into the cell reaction plate using an Echo and centrifuged. Then, 10 µL of assay buffer containing the cells was added and incubated. • 5) Approximately 10 µL of cAMP detection reagent solution was added to the corresponding wells of the cell reaction plate, and incubated at room temperature in the dark. • 6) The plate was read using a microplate reader. The final value was determined as the ratio of OD at 665 nm to that at 615 nm. • 7) The cAMP value was calculated for each well: Activity (%)=(signal value of sample well - mean signal value of low-signal control wells)/ (mean signal value of high-signal control wells - mean signal value of low-signal control wells). Fitting was performed using the "Nonlinear regression (curve fit)-log(agonist) vs. response -- Variable slope" model in GraphPad Prism 5.0, with the log-transformed compound concentration on the x-axis and cAMP activation rate on the y-axis. The EC50 value of the sample was calculated accordingly. Table 2: SSTR2 cAMP Test Results

Structure (SMILES)	IC50 (NCI-H69; Homo sapiens, read-out: IC50) [nM]	Bottom (Inhibition at Lowest Point) (NCI-H69)	Top (Inhibition at Highest Point) (NCI-H69)	IC50 (NCI-H69; Homo sapiens) [nM]	IC50 (NCI-H69) [nM]	activity at 50 µM (SSTR2) [%]	EC50 (SSTR2) [nM]	IC50 (NCI-H69; read-out: IC50) [nM]
CCC(C)C(C(CC(=O)N1CCCC1C(OC)C(C)C(=O)NC(C)C(O)c1ccccc1)OC)N(C)C(=O)C(NC(=O)C(NC)C(C)C)C(C)C (centres unmarked) [MMAE]	0.57	0.31	85.99					
CC[C@@]1(O)C(=O)OCc2c1cc1n(c2=O)Cc2c-1nc1cc(F)c(C)c3c1c2[C@@H](NC(=O)CO)CC3 [Dxd]		= 0.0	98.19	7.53				
CC[C@@]1(O)C(=O)OCc2c1cc1n(c2=O)Cc2c-1nc1cc(F)c(C)c3c1c2[C@@H](NC(=O)COCNC(=O)CNC(=O)[C@H](Cc1ccccc1)NC(=O)CNC(=O)CNC(=O)CCCCCN1C(=O)CC(SC[C@H](NC(C)=O)C(=O)NCCOCCOCCOCCOCCOCCOCCC(=O)N[C@@H](CCCNC(=N)N)C(=O)N[C@@H](CCCNC(=N)N)C(=O)N[C@@H](CC(C)C)C(=O)N[C@@H](Cc2ccccc2)C(=O)N[C@H]2CSSC[C@@H](C(=O)N[C@H](C(=O)N[C@@H](Cc4c[nH]c5ccccc45)C(=O)N[C@@H](CCCNC(=N)N)C(=O)N[C@@H](CC(=O)O)C(N)=O)[C@@H](C)O)NC(=O)[C@H]([C@@H](C)O)NC(=O)[C@H](CCCCN)NC(=O)[C@@H](Cc4c[nH]c5ccccc45)NC(=O)[C@H](Cc4ccc(O)cc4)NC2=O)C1=O)CC3 (stereo partly drawn) [Example 6, Ac-Cys(MC-Gly-Gly-Phe-Gly-NH-CH2-Dxd)-PEG6-Arg-Arg-Leu-Phe-[Cys-Tyr-D-Trp-Lys-Thr-Cys]-Thr-Trp-Arg-Asp-NH2] (I: Ac-C[PEG6]RRLFCY[dW]KTCTWRD-NH2 / II: GGFG[NHCH2OCH2CO]-Exatecan; linker I:1-II:N via Hexanoyl(6-succinimido-3yl); disulfide I:7-I:12)					276	67.8	148	
CC[C@@]1(O)C(=O)OCc2c1cc1n(c2=O)Cc2c-1nc1cc(F)c(C)c3c1c2[C@@H](NC(=O)COCNC(=O)CNC(=O)[C@H](Cc1ccccc1)NC(=O)CNC(=O)CNC(=O)CCCCCN1C(=O)CC(SC[C@H](NC(C)=O)C(=O)NCCOCCOCCOCCOCCOCCOCCC(=O)NCCCC[C@H](NC(=O)CCOCCOCCOCCOCCOCCOCCNC(=O)[C@H](CSC2CC(=O)N(CCCCCC(=O)NCC(=O)NCC(=O)N[C@@H](Cc4ccccc4)C(=O)NCC(=O)NCOCC(=O)N[C@H]4CCc5c(C)c(F)cc6nc7c(c4c56)Cn4c-7cc5c(c4=O)COC(=O)[C@]5(O)CC)C2=O)NC(C)=O)C(=O)N[C@@H](CCCCNC(=O)CCOCCOCCOCCOCCOCCOCCNC(=O)[C@H](CSC2CC(=O)N(CCCCCC(=O)NCC(=O)NCC(=O)N[C@@H](Cc4ccccc4)C(=O)NCC(=O)NCOCC(=O)N[C@H]4CCc5c(C)c(F)cc6nc7c(c4c56)Cn4c-7cc5c(c4=O)COC(=O)[C@]5(O)CC)C2=O)NC(C)=O)C(=O)NCCOCCOCCOCCOCCOCCOCCC(=O)N[C@@H](CCCNC(=N)N)C(=O)N[C@@H](CCCNC(=N)N)C(=O)N[C@@H](CC(C)C)C(=O)N[C@@H](Cc2ccccc2)C(=O)N[C@H]2CSSC[C@@H](C(=O)N[C@H](C(=O)N[C@@H](Cc4c[nH]c5ccccc45)C(=O)N[C@@H](CCCNC(=N)N)C(=O)N[C@@H](CC(=O)O)C(N)=O)[C@@H](C)O)NC(=O)[C@H]([C@@H](C)O)NC(=O)[C@H](CCCCN)NC(=O)[C@@H](Cc4c[nH]c5ccccc45)NC(=O)[C@H](Cc4ccc(O)cc4)NC2=O)C1=O)CC3 (stereo partly drawn) [Example 7, Ac-Cys(MC-Gly-Gly-Phe-Gly-NH-CH2-Dxd)-PEG6-Lys(Ac-Cys(MC-Gly-Gly-Phe-Gly-NH-CH2-Dxd)-PEG6)-Lys(Ac-Cys(MC-Gly-Gly-Phe-Gly-NH-CH2-Dxd)-PEG6)-PEG6-Arg-Arg-Leu-Phe-[Cys-Tyr-D-Trp-Lys-Thr-Cys]-Thr-Trp-Arg-Asp-NH2] (I: Ac-C[PEG6]KK[PEG6]RRLFCY[dW]KTCTWRD-NH2 / II: GGFG[NHCH2OCH2CO]-Exatecan / III: GGFG[NHCH2OCH2CO]-Exatecan / IV: GGFG[NHCH2OCH2CO]-Exatecan; linker I:1-III:N via Hexanoyl(6-succinimido-3yl); linker I:3-II:N, I:4-IV:N via X4; disulfide I:10-I:15)					122	54.4	23400	
CC(=O)O[C@H]1C(=O)[C@@]2(C)[C@H]([C@H](OC(=O)c3ccccc3)[C@]3(O)C[C@H](OC(=O)[C@H](O)[C@@H](NC(=O)c4ccccc4)c4ccccc4)C(C)=C1C3(C)C)[C@]1(OC(C)=O)CO[C@@H]1C[C@@H]2O [PTX]		0.47	78.37					3.74
CC[C@@]1(O)C(=O)OCc2c1cc1n(c2=O)Cc2c-1nc1cc(F)c(C)c3c1c2[C@@H](NC(=O)COCNC(=O)CNC(=O)[C@H](Cc1ccccc1)NC(=O)CNC(=O)CNC(=O)CCCCCN1C(=O)CC(SC[C@H](NC(=O)CCOCCOCCOCCOCCOCCOCCN)C(=O)NCCOCCOCCOCCOCCOCCOCCC(=O)N[C@@H](CCCNC(=N)N)C(=O)N[C@@H](CCCNC(=N)N)C(=O)N[C@@H](CC(C)C)C(=O)N[C@@H](Cc2ccccc2)C(=O)N[C@H]2CSSC[C@@H](C(=O)N[C@H](C(=O)N[C@@H](Cc4c[nH]c5ccccc45)C(=O)N[C@@H](CCCNC(=N)N)C(=O)N[C@@H](CC(=O)O)C(N)=O)[C@@H](C)O)NC(=O)[C@H]([C@@H](C)O)NC(=O)[C@H](CCCCN)NC(=O)[C@@H](Cc4c[nH]c5ccccc45)NC(=O)[C@H](Cc4ccc(O)cc4)NC2=O)C1=O)CC3 (stereo partly drawn) [Example 5, PEG6-Cys(MC-Gly-Gly-Phe-Gly-NH-CH2-Dxd)-PEG6-Arg-Arg-Leu-Phe-[Cys-Tyr-D-Trp-Lys-Thr-Cys]-Thr-Trp-Arg-Asp-NH2] (I: H-[PEG6]C[PEG6]RRLFCY[dW]KTCTWRD-NH2 / II: GGFG[NHCH2OCH2CO]-Exatecan; linker I:2-II:N via Hexanoyl(6-succinimido-3yl); disulfide I:8-I:13)					316	83.5	155	
CC[C@H](C)[C@@H]([C@@H](CC(=O)N1CCC[C@H]1[C@H](OC)[C@@H](C)C(=O)N[C@H](C)[C@@H](O)c1ccccc1)OC)N(C)C(=O)[C@@H](NC(=O)[C@H](C(C)C)N(C)C(=O)OCc1ccc(NC(=O)[C@H](CCCNC(N)=O)NC(=O)[C@@H](NC(=O)CCCCCN2C(=O)CC(SC[C@H](NC(=O)CCOCCOCCOCCOCCOCCOCCN)C(=O)NCCOCCOCCOCCOCCOCCOCCC(=O)N[C@@H](CCCNC(=N)N)C(=O)N[C@@H](CCCNC(=N)N)C(=O)N[C@@H](CC(C)C)C(=O)N[C@@H](Cc3ccccc3)C(=O)N[C@H]3CSSC[C@@H](C(=O)N[C@H](C(=O)N[C@@H](Cc4c[nH]c5ccccc45)C(=O)N[C@@H](CCCNC(=N)N)C(=O)N[C@@H](CC(=O)O)C(N)=O)[C@@H](C)O)NC(=O)[C@H]([C@@H](C)O)NC(=O)[C@H](CCCCN)NC(=O)[C@@H](Cc4c[nH]c5ccccc45)NC(=O)[C@H](Cc4ccc(O)cc4)NC3=O)C2=O)C(C)C)cc1)C(C)C (stereo partly drawn) [Example 2, PEG6-Cys(MC-Val-Cit-PABC-MMAE)-PEG6-Arg-Arg-Leu-Phe-[Cys-Tyr-D-Trp-Lys-Thr-Cys]-Thr-Trp-Arg-Asp-NH2] (I: H-[PEG6]C[PEG6]RRLFCY[dW]KTCTWRD-NH2 / II: V[Cit][PABC][NMeV]V[Dil][Dolaproine]-X2; linker I:2-II:N via Hexanoyl(6-succinimido-3yl); disulfide I:8-I:13)						95.4	477	
